The test has as its target NgDapB (4-hydroxy-tetrahydrodipicolinate reductase from Neisseria gonorrhoeae) (Neisseria gonorrhoeae, UniProt Q5F5Y7). Description: isothermal titration calorimetry. The test is classed as binding.

For orientation: Kd means the concentration at which binding is half-saturated. A higher Kd goes with weaker binding.

Chain of NgDapB (4-hydroxy-tetrahydrodipicolinate reductase from Neisseria gonorrhoeae) (Q5F5Y7 whole entry): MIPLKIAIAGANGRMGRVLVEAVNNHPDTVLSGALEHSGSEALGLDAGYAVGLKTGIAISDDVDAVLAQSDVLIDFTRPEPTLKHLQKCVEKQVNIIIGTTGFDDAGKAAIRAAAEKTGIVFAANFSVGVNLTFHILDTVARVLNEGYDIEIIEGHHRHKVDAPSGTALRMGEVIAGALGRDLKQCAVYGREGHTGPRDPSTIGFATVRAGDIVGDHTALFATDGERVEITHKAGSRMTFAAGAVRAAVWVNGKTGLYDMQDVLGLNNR

In turn, `O=C(O)c1cccc(C(=O)O)n1` [2,6-PDC, 2,6-pyridine dicarboxylic acid] came in with a dissociation constant (Kd) of 21.2 ± 0.7 µM. `NC(=O)C1=CN([C@@H]2O[C@H](COP(=O)(O)OP(=O)(O)OC[C@H]3O[C@@H](n4cnc5c(N)ncnc54)[C@H](O)[C@@H]3O)[C@@H](O)[C@H]2O)C=CC1` [NADH] returned a Kd of 2.5 ± 0.5 µM. `NC(=O)C1=CN([C@@H]2O[C@H](COP(=O)(O)OP(=O)(O)OC[C@H]3O[C@@H](n4cnc5c(N)ncnc54)[C@H](OP(=O)(O)O)[C@@H]3O)[C@@H](O)[C@H]2O)C=CC1` [NADPH] gave a Kd of 4.8 ± 0.6 µM.

(Values after PMC6192261 (Biochemical and biophysical research communications, 2018).)
